From patent US20240309069A1, “COMPOSITIONS AND METHODS FOR TREATMENT OF DISEASES” (Byrock Technologies Limited, priority 2014, published 2024)
Ends that are not written are not given here.

Test system: carbohydrate overload model of acute laminitis in horses
Experiment: Oligofructose (carbohydrate) overload model of acute laminitis, LTNF peptide study KLM-15-02
Format: in vivo
Details: all horses that received the intravenous peptide, 2 to 8 grams
Procedure: This communication is a brief report on the results obtained from the recent clinical study to evaluate the potential prophylactic and/or therapeutic properties of KLM's proprietary application of a 15 amino acid sequence termed LTRF in saline when employed in a carbohydrate overload model of acute laminitis in horses.
In compliance with the methods outlined in protocol KLM-15-02, nine healthy, mature horses between 4 and 9 years of age were evaluated for enrollment in the clinical study. […] Preliminary examinations were deemed normal for all candidates. Eligible candidates underwent a formal acclimation period of 10 days, during which feed, water, housing and management were identical to conditions of the actual study. On Days −3, −2, and −1, oligofructose was added to the a.m. grain ration of each candidate at a dosage of 1 gram per kg body weight.
Prior to induction on Day 0, a baseline lameness exam was repeated and captured on video. […]
At regular, 6-hr intervals after induction, the general health of each horse was assessed, a lameness exam was repeated, and rectal temperature was monitored. Once diarrhea had begun, each horse's hydration status was monitored at 2- to 4-hr intervals by assessing its packed cell volume (PCV; hematocrit) and plasma total protein concentration. […]

In the case of “LKAMDPTPPLWIKTE [LTNF peptide, Leu-Lys-Ala-Met-Asp-Pro-Thr-Pro-Pro-Leu-Trp-Ile-Lys-Thr-Glu]”, the “signs of immune reaction or toxicity” value is reported as “no signs of immune reaction or toxicity”.
